{"source": "patent US11028084B2", "about": "“Selective inhibitors of gentotoxic steress-induced IKK/NF-κB pathways” (Max-Delbrück-Centrum für Molekulare Medizin in der …, priority 2016, dated 2021)", "key": {"[1]": {"tested_on": "genotoxic stress-activated NF-κB signaling", "experiment": "TAK1 and p65 S536 phosphorylation after γ-irradiation, WB, HepG2 cells", "format": "cell-based, human", "protocol": "FIG. 6: (A) U2OS cells were pre-treated with DMSO or MW01 and irradiated. Stimulation of cell with IL-1β served as a positive control for IκBα and p65 phosphorylation. Cells were lysed at indicated time points and used for WB analyses. (B,C) Similar experimental setup as in (A). (D) Experiment as in (A-C), but with other time points analysed and performed with HepG2 cells. PARP1 and LDH serve as loading controls.\nFIG. 9: HepG2 cells were pre-incubated with DMSO, MW01 (5 μM) or the ATM inhibitor Ku55933 (10 μM) and irradiated. After 60 min cells were harvested and processed. Immunochemical staining of Western blotting membranes was done using indicated antibodies.\n(§1) FIG. 14: (A) U2OS cells were pre-treated with different concentrations of olaparib prior to co-treatment with etoposide. Whole cell lysis was performed after 90 min and cleared lysates were used for WB with indicated antibodies. (B) U2OS cells were pre-treated with DMSO, olaparib or the ATM inhibitor Ku55933 and co-treated with etoposide. Cells were harvested after 45 min and subjected to SDS-PAGE/WB. Membranes were stained with the indicated antibodies. The experiment of (B) was performed simultaneously to the experiments of (A) and (E) to control functionality of olaparib in inhibiting PAR chain formation. (C) Densitometrical analyses of (A) and two further independent experiments done as shown in (A). (D) U2OS cells were pre-treated with the substances as indicated prior to irradiation. After 90 min mRNA was isolated, transcribed into cDNA and was used for expression analyses of the indicated genes using quantitative real-time PCR (qRT-PCR). (E) HepG2 cells were pre-treated with the PARP inhibitors olaparib, 3-AB and EB-47 prior to γ-irradiation. Cells were harvested after 15 and 90 min and subjected to SDS-PAGE/WB. Membranes were stained with the indicated antibodies. Error bars equal SEM."}, "[2]": {"tested_on": "ATM substrate histone H2AX", "experiment": "Phospho-H2AX immunofluorescence after etoposide, U2OS cells", "format": "cell-based, human", "settings": "after etoposide treatment", "protocol": "FIG. 2: U2OS cells were pre-treated and incubated with DMSO or MW01. DNA damage was induced by administration of etoposide. After 2 h cells were fixed, nuclei were stained with DAPI. p65 and phospho-H2AX, which is indicative for DNA DSB, were stained by immunofluorescence. Images were taken at a confocal Zeiss 710 LSM with a 40× oil objective."}, "[3]": {"tested_on": "IKKγ phosphorylation at S85", "experiment": "IKKγ S85 phosphorylation after irradiation, WB, HEK293 cells", "format": "cell-based", "settings": "HEK293 (human)", "protocol": "FIG. 11: (A) HEK293 cells were pre-incubated with DMSO, MW01 or ATM inhibitor KU55933 and irradiated. Lysates were subjected to SDS-PAGE/WB. The specific IKKγ S85 band (lower band) was identified by induction following irradiation and by sensitivity to ATMi and λ-phosphatase (λ-PP) treatment. The asterisk indicates a non-specific band that was neither inducible nor ATMi sensitive. (B) Experiment was done as shown in (A) using MEF cells. (C) HEK293 cells were pre-treated with DMSO or MW01, irradiated and lysed. Lysates were used to immunoprecipitate IKKγ using an IKKγ antibody."}, "U2OS cells [4]": {"tested_on": "U2OS cells", "experiment": "qRT-PCR of anti- and pro-apoptotic genes after γ-IR, U2OS cells", "format": "cell-based, human", "protocol": "FIG. 15: (A), (B) U2OS cells were pre-treated with DMSO or MW01 and irradiated. After 8 h mRNA was isolated and reversely transcribed into cDNA. The obtained cDNA was used to perform qRT-PCR using gene specific exon-exon-spanning primers for mRNA of anti-apoptotic (A) and pro-apoptotic genes (B).\nTo quantitate specific mRNA (messenger RNA) species in samples RNA was isolated, RNA concentration was measured and mRNA was transcribed into cDNA. The amount of mRNA transcripts of certain genes within a sample was quantified by employing gene specific primers and using a C-1000 Thermal cycler (Biorad). The expression of genes of interest was normalised against two or three reference genes (HRPT1, RPL_13a and B2M) using the CFX manager software. The fold induction of mRNA was calculated over untreated sample levels by the ΔΔ-Ct method."}, "U2OS cells [5]": {"tested_on": "U2OS cells", "experiment": "Caspase-3-dependent cleavage of PARP1, WB, U2OS cells", "format": "cell-based, human", "protocol": "FIG. 16: (A) U2OS cells were pre-treated with DMSO or MW01 and irradiated. Cells were lysed 8 h post γ-IR and were used for western blotting and immunochemical staining. (B) HEK293 cells were pre-treated with DMSO or MW01 and irradiated. After 48 h cells were fixed and stained with crystal violet. Dissolved crystal violet was used for absorbance measurement in a visible light spectrophotometer at a wavelength of 595 nm. (C) HEK293 cells were pre-treated with DMSO or MW01 and irradiated. The percentage of viable cells within the population was calculated by exclusion of annexin V and propidium-iodide positive cells measured by flow cytometry. (D) MEF cells were pre-treated with DMSO or MW01 and irradiated. Cells were used for annexin V staining 24 h and 48 after γ-IR. Percentage of annexin V positive cell population was analysed using a flow cytometer. (E) Experiment done as shown in (D) but with HT1080 cells processed 8 h after irradiation. Statistical significance was calculated using students t-test."}, "PARP1": {"target": "PARP1 (Homo sapiens, UniProt P09874)", "sequence (P09874 whole entry)": "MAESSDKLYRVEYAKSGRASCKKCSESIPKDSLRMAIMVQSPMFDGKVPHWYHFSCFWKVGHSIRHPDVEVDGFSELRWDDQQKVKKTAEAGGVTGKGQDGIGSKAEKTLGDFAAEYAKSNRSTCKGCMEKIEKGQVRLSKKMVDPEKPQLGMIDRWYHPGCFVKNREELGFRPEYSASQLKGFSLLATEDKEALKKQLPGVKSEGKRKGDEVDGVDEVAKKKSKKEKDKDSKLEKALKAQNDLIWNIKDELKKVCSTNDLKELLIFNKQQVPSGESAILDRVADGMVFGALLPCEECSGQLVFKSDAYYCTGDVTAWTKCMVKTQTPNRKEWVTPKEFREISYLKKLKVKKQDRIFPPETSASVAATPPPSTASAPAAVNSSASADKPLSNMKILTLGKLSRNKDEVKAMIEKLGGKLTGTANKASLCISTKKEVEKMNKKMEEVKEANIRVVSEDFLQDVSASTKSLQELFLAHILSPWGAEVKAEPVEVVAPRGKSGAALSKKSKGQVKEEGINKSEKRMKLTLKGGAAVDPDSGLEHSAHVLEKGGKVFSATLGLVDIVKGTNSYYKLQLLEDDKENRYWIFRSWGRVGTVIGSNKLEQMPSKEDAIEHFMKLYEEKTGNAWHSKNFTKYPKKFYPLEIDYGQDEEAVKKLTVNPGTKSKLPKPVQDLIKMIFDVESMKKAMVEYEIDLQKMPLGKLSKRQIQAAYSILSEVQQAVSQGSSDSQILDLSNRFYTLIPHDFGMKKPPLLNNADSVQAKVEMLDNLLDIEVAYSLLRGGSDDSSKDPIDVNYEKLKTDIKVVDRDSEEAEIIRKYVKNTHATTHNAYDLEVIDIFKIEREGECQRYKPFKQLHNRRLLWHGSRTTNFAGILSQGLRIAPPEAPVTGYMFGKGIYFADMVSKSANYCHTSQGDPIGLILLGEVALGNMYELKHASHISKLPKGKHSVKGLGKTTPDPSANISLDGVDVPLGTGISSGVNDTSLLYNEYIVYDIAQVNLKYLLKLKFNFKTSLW", "experiment": "PARP1 enzymatic activity, PAR chain formation, U2OS cells", "format": "cell-based", "parameters": "Experiment performed as described for (A), but using U2OS cells; endogenous in cells; host or cells: U2OS", "settings": "γ-irradiation", "protocol": "FIG. 10: (A) MEF cells were pre-treated with the indicated substances, irradiated and cell lysates were used for poly(ADP)-ribose probing using a specific antibody. (B) Experiment performed as described for (A), but using U2OS cells.\nas §1, with “Membranes were stained with the indicated antibodies. Error bars equal SEM.” left out"}}}
{"smiles": "COc1ccc2c(c1OC)c(=O)n1c3ccc(O)cc3c3ccnc2c31", "note": "[MW01, 12-hydroxy-6,7-dimethoxy-8H-benzo[c]indolo[3,2,1-ij][1,5]naphthyridin-8-one]", "values": [{"measurement": "p65 S536 phosphorylation level", "setting": "[1]; HepG2, 5 μM, irradiated, 60 min", "result": "drastically reduced"}, {"measurement": "TAK1 and p65 phosphorylation", "setting": "[1]; HepG2, γ-IR", "result": "abolished"}, {"measurement": "phosphorylation of the ATM substrate histone H2AX", "setting": "[2]", "result": "did not lead to impaired phosphorylation"}, {"measurement": "phosphorylation of IKKγ at S85", "setting": "[3]", "result": "abolished"}, {"measurement": "BIRC3 mRNA", "setting": "U2OS cells [4]; 8 h after γ-IR", "result": "down-regulated"}, {"measurement": "expression of BCL2L1 mRNA", "setting": "U2OS cells [4]; 8 h after γ-IR", "result": "fully inhibited"}, {"measurement": "expression of XIAP mRNA", "setting": "U2OS cells [4]; 8 h after γ-IR", "result": "moderately inhibited"}, {"measurement": "BBC3 mRNA expression, induction", "setting": "U2OS cells [4]; after irradiation", "result": 3, "unit": "fold"}, {"measurement": "PMAIP1 mRNA expression", "setting": "U2OS cells [4]; after irradiation", "result": "further elevated"}, {"measurement": "mRNA expression of TNFAIP3", "setting": "U2OS cells [4]; after γ-IR, in comparison to irradiated controls", "result": "abolished mRNA expression"}, {"measurement": "mRNA expression of PMAIP1", "setting": "U2OS cells [4]; pre-treatment without irradiation", "result": "already increased"}, {"measurement": "BBC3 mRNA expression", "setting": "U2OS cells [4]; without irradiation", "result": "not influenced"}, {"measurement": "mRNA expression of BIRC3, XIAP or BCL2L1 in comparison to the DMSO control", "setting": "U2OS cells [4]; without irradiation", "result": "did not significantly change"}, {"measurement": "PARP1 cleavage", "setting": "U2OS cells [5]; 8 h post γ-IR", "result": "strongly increased"}, {"measurement": "PARP1 cleavage", "setting": "U2OS cells [5]; resting cells", "result": "slight increase"}, {"measurement": "PAR chain formation / PARP1 enzymatic activity", "setting": "PARP1", "result": "did not interfere with activation of PARP1 enzymatic activity"}]}
